According to patent US20250171459A1, “2-METHYL-4',5'-DIHYDROSPIRO[PIPERIDINE-4,7'-THIENO[2,3-C]PYRAN] DERIVATIVES AS INHIBITORS OF APOL1 AND METHODS OF USING SAME” (Vertex Pharmaceuticals Incorporated, priority 2022, published 2025):
pIC50: −log10 of the molar value.

Target: T1, APOL1 (Homo sapiens, UniProt O14791)
T1 sequence (O14791 1-398 S342G/I384M): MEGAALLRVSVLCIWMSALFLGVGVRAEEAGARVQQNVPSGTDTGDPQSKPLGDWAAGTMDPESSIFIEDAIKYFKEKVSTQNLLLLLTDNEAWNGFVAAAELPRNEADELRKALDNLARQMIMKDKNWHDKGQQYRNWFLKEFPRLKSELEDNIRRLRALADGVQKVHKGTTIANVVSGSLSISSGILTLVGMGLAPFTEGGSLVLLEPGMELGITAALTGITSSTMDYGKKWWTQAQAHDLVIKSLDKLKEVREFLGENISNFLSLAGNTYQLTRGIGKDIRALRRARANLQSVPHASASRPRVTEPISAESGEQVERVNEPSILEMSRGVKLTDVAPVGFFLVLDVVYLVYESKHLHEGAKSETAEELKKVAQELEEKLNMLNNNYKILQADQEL
Assay: MultiTox-Fluor Multiplex Cytotoxicity Assay in tet-inducible APOL1 T-REx-HEK293 cells (cell rescue, ratio of dead to live cells)
Format: cell-based
Details: tet-inducible transgenic APOL1 T-REx-HEK293 cell lines, 50 ng/mL tet, 24 hours; read-out: IP50 (i.e., IC50 for cell proliferation)
Method in brief: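 T-REx-HEK293 cells with tet-inducible APOL1 were treated with compound (10 μM top, 10-point 3-fold dilution, duplicate) plus 50 ng/mL tetracycline for 24 h at 37° C, in DMEM with 2% tet-free FBS. MultiTox-Fluor protease signals gave a dead/live ratio, normalized to no tet (100% viability) and tet alone (0%).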

| Compound | pIC50 |
| --- | --- |
| CCc1cc2c(s1)CCO[C@@]21CCN(CC2CN(C(=O)Cc3sc(O)nc3O)C2)[C@@H](C)C1 [Compound 488] | > 7.00 |
| CCc1cc2c(s1)CCO[C@@]21CCN(CC2CN(C(=O)N(C)C)C2)[C@@H](C)C1 [Compound 490] | 6.00 to 6.30 |
| CCc1cc2c(s1)CCO[C@@]21CCN(CC2CN(S(=O)(=O)CC)C2)[C@@H](C)C1 [Compound 491, (2′S,4R)-2-ethyl-1′-[(1-ethylsulfonylazetidin-3-yl)methyl]-2′-methyl-spiro[6,7-dihydrothieno[3,2-c]pyran-4,4′-piperidine]] | 6.30 to 7.00 |
| CCc1cc2c(s1)CCO[C@@]21CCN(CC2CN(S(=O)(=O)CCO)C2)[C@@H](C)C1 [Compound 492] | 6.30 to 7.00 |
| CCc1cc2c(s1)CCO[C@@]21CCN(CC2CN(S(=O)(=O)c3ccccc3)C2)[C@@H](C)C1 [Compound 493] | 6.00 to 6.30 |
| CCc1cc2c(s1)CCO[C@@]21CCN(CC2CN(S(=O)(=O)C3CCOCC3)C2)[C@@H](C)C1 [Compound 494] | 6.30 to 7.00 |
| CCc1cc2c(s1)CCO[C@@]21CCN(CC2CN(S(=O)(=O)c3cnn4c3OCCC4)C2)[C@@H](C)C1 [Compound 495] | 6.00 to 6.30 |
| CCc1cc2c(s1)CCO[C@@]21CCN(CC2CN(S(=O)(=O)c3c[nH]cn3)C2)[C@@H](C)C1 [Compound 496] | 6.00 to 6.30 |
| CCC1=CC2=C(CCO[C@@]23CCN(Cc2cn(CCS(C)(=O)=O)nn2)[C@@H](C)C3)S1(=O)=O [Compound 497, (2′S,4R)-2-ethyl-2′-methyl-1′-[[1-(2-methylsulfonylethyl)triazol-4-yl]methyl]spiro[6,7-dihydrothieno[3,2-c]pyran-4,4′-piperidine]1,1-dioxide] | 6.30 to 7.00 |
| CCc1cc2c(s1)CCOC21CCN(Cc2cnn(C)c2)C(C)(C)C1 (stereo not shown) [Compound 498, 2-ethyl-2′,2′-dimethyl-1′-[(1-methylpyrazol-4-yl)methyl]spiro[6,7-dihydrothieno[3,2-c]pyran-4,4′-piperidine]] | 6.00 to 6.30 |
| Cc1cc2c(s1)CCO[C@@]21CCN(CC(O)C(N)=O)[C@@H](C)C1 (stereo partly shown) [Compound 501] | 6.30 to 7.00 |
| Cc1cc2c(s1)CCO[C@@]21CCN(CC(O)C(N)=O)[C@@H](C)C1 (stereo partly shown) [Compound 502] | 6.30 to 7.00 |
| Cc1cc2c(s1)CCO[C@@]21CCN(CC(O)C(N)=O)[C@@H](C)C1 (stereo partly shown) [Compound 503] | 6.30 to 7.00 |
| Cc1cc2c(s1)CCO[C@@]21CCN(C2CCCC2O)[C@@H](C)C1 (stereo partly shown) [Compound 504] | 6.30 to 7.00 |
| Cc1cc2c(s1)CCO[C@@]21CCN(C2CCCC2O)[C@@H](C)C1 (stereo partly shown) [Compound 505] | > 7.00 |
| C[C@H]1C[C@@]2(CCN1CCO)OCCc1sc(Cl)cc12 [Compound 506] | 6.30 to 7.00 |
| C[C@H](O)CN1CC[C@]2(C[C@@H]1C)OCCc1sc(Cl)cc12 [Compound 507] | 6.30 to 7.00 |
| C[C@H]1C[C@@]2(CCN1C[C@H](O)C(N)=O)OCCc1sc(Cl)cc12 [Compound 508, (2S)-3-[(2′S,4R)-2-chloro-2′-methyl-spiro[6,7-dihydrothieno[3,2-c]pyran-4,4′-piperidine]-1′-yl]-2-hydroxy-propanamide] | 6.30 to 7.00 |
| C[C@H]1C[C@@]2(CCN1C[C@@H](O)C(N)=O)OCCc1sc(Cl)cc12 [Compound 509, (2R)-3-[(2′S,4R)-2-chloro-2′-methyl-spiro[6,7-dihydrothieno[3,2-c]pyran-4,4′-piperidine]-1′-yl]-2-hydroxy-propanamide] | 6.30 to 7.00 |
| Cc1cc2c(s1)CCO[C@@]21CCN(Cc2cn(CCS(C)(=O)=O)nn2)[C@@H](C)C1 [Compound 510, (2′S)-2,2′-dimethyl-1′-[[1-(2-methylsulfonylethyl)triazol-4-yl]methyl]spiro[6,7-dihydrothieno[3,2-c]pyran-4,4′-piperidine]] | > 7.00 |
| C[C@H]1C[C@@]2(CCN1Cc1cn(CCS(C)(=O)=O)nn1)OCCc1sc(Cl)cc12 [Compound 511] | > 7.00 |
| Cc1sc2c(c1C)[C@]1(CCN(Cc3cn(CCS(C)(=O)=O)nn3)[C@@H](C)C1)OCC2 [Compound 512] | 6.30 to 7.00 |
| CCCc1cc2c(s1)CCO[C@@]21CCN(Cc2cn(CCS(C)(=O)=O)nn2)[C@@H](C)C1 [Compound 513] | 6.30 to 7.00 |

| Compound | pIC50 |
| --- | --- |
| CC(C)Cc1cc2c(s1)CCO[C@@]21CCN(Cc2cn(CCS(C)(=O)=O)nn2)[C@@H](C)C1 [Compound 514] | 6.30 to 7.00 |
| C[C@H]1C[C@@]2(CCN1Cc1cnc(NC(C)(C)CO)nc1)OCCc1sc(Cl)cc12 [Compound 515, 2-[[5-[[(2′S,4R)-2-chloro-2′-methyl-spiro[6,7-dihydrothieno[3,2-c]pyran-4,4′-piperidine]-1′-yl]methyl]pyrimidin-2-yl]amino]-2-methyl-propan-1-ol] | > 7.00 |
| Cc1cc2c(s1)CCO[C@]21CCN(Cc2cnn(CCS(C)(=O)=O)c2)[C@@H](C)C1 [Compound 516, (2′S,4S)-2,2′-dimethyl-1′-[[1-(2-methylsulfonylethyl)pyrazol-4-yl]methyl]spiro[6,7-dihydrothieno[3,2-c]pyran-4,4′-piperidine]] | > 7.00 |
| Cc1cc2c(s1)CCO[C@@]21CCN(Cc2cnn(CCS(C)(=O)=O)c2)[C@H](C)C1 [Compound 517] | 6.30 to 7.00 |
| C[C@H]1C[C@@]2(CCN1Cc1cnn(CCS(C)(=O)=O)c1)OCCc1sc(Cl)cc12 [Compound 518] | > 7.00 |
| Cc1sc2c(c1C)[C@]1(CCN(Cc3cnn(C)c3)[C@@H](C)C1)OCC2 [Compound 519, (2′S,4R)-2,2′,3-trimethyl-1′-[(1-methylpyrazol-4-yl)methyl]spiro[6,7-dihydrothieno[3,2-c]pyran-4,4′-piperidine]] | > 7.00 |
| CCCc1cc2c(s1)CCO[C@@]21CCN(Cc2cnn(C)c2)[C@@H](C)C1 [Compound 520] | > 7.00 |
| CC(C)Cc1cc2c(s1)CCO[C@@]21CCN(Cc2cnn(C)c2)[C@@H](C)C1 [Compound 521] | > 7.00 |
| C[C@H]1C[C@@]2(CCN1Cc1cn(CCS(C)(=O)=O)nn1)OCCc1sc(Br)cc12 [Compound 522, (2′S,4R)-2-bromo-2′-methyl-1′-[[1-(2-methylsulfonylethyl)triazol-4-yl]methyl]spiro[6,7-dihydrothieno[3,2-c]pyran-4,4′-piperidine]] | > 7.00 |
| C[C@H]1C[C@@]2(CCN1Cc1cnn(CCS(C)(=O)=O)c1)OCCc1sc(CC(F)F)cc12 [Compound 523, (2′S,4R)-2-(2,2-difluoroethyl)-2′-methyl-1′-[[1-(2-methylsulfonylethyl)pyrazol-4-yl]methyl]spiro[6,7-dihydrothieno[3,2-c]pyran-4,4′-piperidine]] | > 7.00 |
| C[C@H]1C[C@@]2(CCN1Cc1cn(CCS(C)(=O)=O)nn1)OCCc1sc(C(F)F)cc12 [Compound 524, (2′S,4R)-2-(difluoromethyl)-2′-methyl-1′-[[1-(2-methylsulfonylethyl)triazol-4-yl]methyl]spiro[6,7-dihydrothieno[3,2-c]pyran-4,4′-piperidine]] | > 7.00 |
| C[C@H]1C[C@@]2(CCN1Cc1cn(CCS(C)(=O)=O)nn1)OCCc1sc(C(F)(F)F)cc12 [Compound 525, (2′S,4R)-2′-methyl-1′-[[1-(2-methylsulfonylethyl)triazol-4-yl]methyl]-2-(trifluoromethyl)spiro[6,7-dihydrothieno[3,2-c]pyran-4,4′-piperidine]] | > 7.00 |
| CCc1sc2c(c1Br)[C@]1(CCN(Cc3cn(CCS(C)(=O)=O)nn3)[C@@H](C)C1)OCC2 [Compound 526, (2′S,4R)-3-bromo-2-ethyl-2′-methyl-1′-[[1-(2-methylsulfonylethyl)triazol-4-yl]methyl]spiro[6,7-dihydrothieno[3,2-c]pyran-4,4′-piperidine]] | 6.30 to 7.00 |
| [2H]c1c(CC)sc2c1[C@]1(CCN(Cc3cn(CCS(C)(=O)=O)nn3)[C@@H](C)C1)OCC2 [Compound 527, (2′S,4R)-3-deuterio-2-ethyl-2′-methyl-1′-[[1-(2-methylsulfonylethyl)triazol-4-yl]methyl]spiro[6,7-dihydrothieno[3,2-c]pyran-4,4′-piperidine]] | > 7.00 |
| C[C@H]1CC2(CCN1Cc1cnn(C)c1)OC(CO)Cc1sc(Cl)cc12 (stereo partly shown) [Compound 530] | > 7.00 |
| CC(C)C1Cc2sc(Cl)cc2C2(CCN(Cc3cnn(C)c3)[C@@H](C)C2)O1 (stereo partly shown) [Compound 532] | 6.30 to 7.00 |
| CCC1Cc2sc(Cl)cc2C2(CCN(Cc3cnn(C)c3)[C@@H](C)C2)O1 (stereo partly shown) [Compound 533] | 6.00 to 6.30 |
| CC1CO[C@@]2(CCN(Cc3cn(CCS(C)(=O)=O)nn3)[C@@H](C)C2)c2cc(C(F)(F)F)sc21 (stereo partly drawn) [Compound 534, (2S,4R)-2,7′-dimethyl-1-((1-(2-(methylsulfonyl)ethyl)-1H-1,2,3-triazol-4-yl)methyl)-2′-(trifluoromethyl)-6′,7′-dihydrospiro[piperidine-4,4′-thieno[3,2-c]pyran]] | > 7.00 |
| CCc1cc2c(s1)C(C)COC21CCN(Cc2cn(CCS(C)(=O)=O)nn2)[C@@H](C)C1 (stereo partly shown) [Compound 535] | > 7.00 |
| CC1COC2(CCN(Cc3cn(CCS(C)(=O)=O)nn3)[C@@H](C)C2)c2cc(Cl)sc21 (stereo partly shown) [Compound 536] | > 7.00 |
| CCc1cc2c(s1)C(C)COC21CCN(Cc2cn(CCS(C)(=O)=O)nn2)[C@@H](C)C1 (stereo partly shown) [Compound 537] | > 7.00 |
| CC1COC2(CCN(Cc3cn(CCS(C)(=O)=O)nn3)[C@@H](C)C2)c2cc(Cl)sc21 (stereo partly shown) [Compound 540] | > 7.00 |
| CC1COC2(CCN(Cc3cn(CCS(C)(=O)=O)nn3)[C@@H](C)C2)c2cc(C(F)(F)F)sc21 (stereo partly shown) [Compound 541] | > 7.00 |
